For assay [1], the system named is acute liver injury induced by carbon tetrachloride. Description: Effect on acute liver injury induced by carbon tetrachloride (serum GPT). It counts as in vivo, male ICR strain mice. As to conditions: oral, mice, 18 hours; for GPT: mean ± S.E.; for Inhibition %: serum GPT vs control. As to the method: (§1) Effect on acute liver injury induced by carbon tetrachloride Ten male ICR strain mice (six weeks old, about 30 g of body weight) per group were used for the test. Suspensions of the compound, obtained in Example 1, in 5% gum arabic solution in various concentrations were prepared for test drugs. A 5% gum arabic solution was used as a control. The test drugs and a 5% gum arabic solution were each administered orally in an amount of 10 ml/kg of body weight to different animals. After standing for 18 hours, the animals were anesthetized with ether, the blood was drawn and centrifuged for measuring the serum GPT value. Malotilate served as a comparative test drug.

Assay [2] relates to acute liver injury induced by D-galactosamine. Briefly: Effect on acute liver injury induced by D-galactosamine (serum GPT). It counts as in vivo, male Wister strain rats. The settings on record: oral, rats, 18 hours; for GPT: mean ± S.E.; for Inhibition %: serum GPT vs control. As to the method:
as §1, with “D-galactosamine Six” for “carbon tetrachloride Ten”, “Wister” for “ICR”, “rats (eight” for “mice (six”, “200” for “30”, “5” for “10”

Take `CC(=O)N(C)CC(=O)c1ccc2c(c1)OCO2` [A, N-methyl-N-(3,4-methylenedioxyphenacyl)acetamide]: the GPT in assay [1] (10 mg/kg) is 2634 ± 380 IU/1; in assay [1] (30 mg/kg), 636 ± 245 IU/1; in assay [1] (100 mg/kg) it was 39 ± 3 IU/1; in assay [2] (30 mg/kg), 15972 ± 2810 IU/1; in assay [2] (100 mg/kg), 7440 ± 757 IU/1; in assay [2] (300 mg/kg) it was 4415 ± 1539 IU/1. The Inhibition % in assay [1] (10 mg/kg) worked out at 56%; in assay [1] (30 mg/kg), 89%; in assay [1] (100 mg/kg), 100%; in assay [2] (30 mg/kg) it was 22.5%; in assay [2] (100 mg/kg), 64.1%; in assay [2] (300 mg/kg), 78.8%.

Regarding `CC(C)OC(=O)C(C(=O)OC(C)C)=C1SC=CS1` [B, Malotilate], the GPT in assay [1] (10 mg/kg) was 4291 ± 1012 IU/1; in assay [1] (30 mg/kg), 1778 ± 310 IU/1; in assay [1] (100 mg/kg) it was 148 ± 40 IU/1; in assay [2] (30 mg/kg), 19240 ± 1183 IU/1; in assay [2] (100 mg/kg) it was 11190 ± 777 IU/1; in assay [2] (300 mg/kg) it was 15557 ± 1669 IU/1. In addition, the Inhibition % in assay [1] (10 mg/kg) is 28%; in assay [1] (30 mg/kg), 71%; in assay [1] (100 mg/kg) it was 98%; in assay [2] (30 mg/kg), 6.4%; in assay [2] (100 mg/kg), 45.6%; in assay [2] (300 mg/kg) it was 24.6%.

The values are drawn from patent US4937360A, “N-substituted amide derivatives useful for treating liver diseases” (Taisho Pharmaceutical Co., Ltd., priority 1988, dated 1990).
